Results as given in patent US7435837B2, “Dihydrobenzofuranyl alkanamine derivatives and methods for using same” (Wyeth, priority 2003, dated 2008).
Read-outs that look alike come from different tables or passages of the source.

Experiments:
human 5-HT2C receptor = target: T1, human 5-HT2C receptor (Homo sapiens, UniProt P28335); test: 5-HT2C receptor-stimulated calcium mobilization (FLIPR) in CHO cells; assay type: cell-based; settings: for Emax: CHO; for EC50: calcium mobilization, CHO cells stably expressing human 5-HT2C, read-out: 5-HT2C Function EC50;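 for all read-outs here: Fluo-3-AM fluorescence read on FLIPR every 1 s, agonist added after 10 baseline reads, response taken as peak minus lowest raw fluorescence count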
T1 sequence (P28335 33-458): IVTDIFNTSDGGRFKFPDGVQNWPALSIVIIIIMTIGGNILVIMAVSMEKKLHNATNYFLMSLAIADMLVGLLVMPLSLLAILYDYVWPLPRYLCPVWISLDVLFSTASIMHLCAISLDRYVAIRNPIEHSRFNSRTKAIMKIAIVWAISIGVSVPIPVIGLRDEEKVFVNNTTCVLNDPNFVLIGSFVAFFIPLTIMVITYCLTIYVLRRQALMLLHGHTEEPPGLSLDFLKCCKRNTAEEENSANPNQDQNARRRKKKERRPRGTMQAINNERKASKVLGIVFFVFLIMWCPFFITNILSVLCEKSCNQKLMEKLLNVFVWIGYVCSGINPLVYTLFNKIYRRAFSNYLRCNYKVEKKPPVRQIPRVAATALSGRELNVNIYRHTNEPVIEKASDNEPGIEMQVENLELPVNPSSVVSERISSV

[1] = target: T2, human 5-hydroxytryptamine-2C (h5-HT2C) receptor (Homo sapiens, UniProt P28335); test: [125I]DOI binding to membranes of CHO cells expressing the human 5-HT2C receptor; settings: [125I]DOI radioligand, CHO cell membranes, room temperature 60 min; read-out: 5-HT2C Affinity Ki
T2 construct: expressed in transfected cells; host or cells: CHO (Chinese Hamster Ovary) cells; membranes
T2 sequence (P28335 33-458): T1 sequence (P28335 33-458)

[2] = percentage of the response observed with a maximally effective concentration of 5-HT, read-out: 5-HT2C Function Emax (%)
[3] = percentage of the response observed with a maximally effective concentration of 5-HT

Row | SMILES | Emax (human 5-HT2C receptor; [2]) | EC50 (human 5-HT2C receptor) | Ki [1] | 5-HT2C Function Emax (%) (human 5-HT2C receptor; [3]) | Emax (human 5-HT2C receptor; read-out: 5-HT2C Function Emax (%), percentage of the response observed with a maximally effective concentration of 5-HT)
1 | NCC1Cc2cccc(-c3ccsc3)c2O1 (racemic) [Example 44, (±)-1-(7-thien-3-yl-2,3-dihydro-1-benzofuran-2-yl)methanamine] | 100% | 7 nM | 3 nM | – | –
2 | CNCC1Cc2cc(OC)cc(-c3cccc(C)c3C)c2O1 (racemic) [Example 496, (±)-{[7-(2,3-dimethylphenyl)-5-methoxy-2,3-dihydro-1-benzofuran-2-yl]methyl}methylamine] | 60% | 510 nM | 46 nM | – | –
3 | NCC1Cc2cc(C(F)(F)F)cc(-c3ccoc3)c2O1 (racemic) [Example 341, (±)-{[7-(3-furyl)-5-(trifluoromethyl)-2,3-dihydro-1-benzofuran-2-yl]methyl}amine] | 90% | 231 nM | 36 nM | – | –
4 | CNCC1Cc2cccc(-c3ccccc3Cl)c2O1 (single isomer, unassigned; (+)) [Example 410, (+)-N-methyl-1-[7-(2-chlorophenyl)-2,3-dihydro-1-benzofuran-2-yl]methanamine] | 90% | 0.05 nM | 0.08 nM | – | –
5 | CNCC1Cc2ccc(F)c(-c3ccccc3C)c2O1 (racemic) [Example 401, (±)-{[6-fluoro-7-(2-methylphenyl)-2,3-dihydro-1-benzofuran-2-yl]methyl}methylamine] | 90% | 0.7 nM | 0.38 nM | – | –
6 | CNCC1Cc2cc(C)cc(-c3ccc(OC)cc3)c2O1 (racemic) [Example 483, (±)-{[7-(4-methoxyphenyl)-5-methyl-2,3-dihydro-1-benzofuran-2-yl]methyl}methylamine] | 80% | 58 nM | 5 nM | – | –
7 | NCC1Cc2cccc(-c3cccc(Cl)c3)c2O1 (single isomer, unassigned; (+)) [Example 66, (+)-1-[7-(3-chlorophenyl)-2,3-dihydro-1-benzofuran-2-yl]methanamine] | – | 250 nM | 5 nM | 100% | –
8 | NCC1Cc2cccc(-c3ccccc3C(F)(F)F)c2O1 (single isomer, unassigned; (+)) [Example 55, (+)-1-{7-[2-(trifluoromethyl)phenyl]-2,3-dihydro-1-benzofuran-2-yl}methanamine] | – | 48 nM | 3 nM | 70% | –
9 | NCC1Cc2cc(F)cc(-c3ccc(Cl)cc3Cl)c2O1 (racemic) [Example 216, (±)-{[7-(2,4-dichlorophenyl)-5-fluoro-2,3-dihydro-1-benzofuran-2-yl]methyl}amine] | – | 0.2 nM | 0.7 nM | – | 100%
10 | COc1ccc(-c2cccc3c2OC(CN)C3)cc1 (single isomer, unassigned; (+)) [Example 80, (+)-1-[7-(4-methoxyphenyl)-2,3-dihydro-1-benzofuran-2-yl]methanamine] | – | 17 nM | 1 nM | 90% | –
11 | NCC1Cc2c(cccc2-c2ccccc2)O1 (single isomer, unassigned; (+)) [Example 2, (+)-1-(4-phenyl-2,3-dihydro-1-benzofuran-2-yl)methanamine] | 90% | 61 nM | 16 nM | – | –
12 | COc1cc2c(c(-c3ccccc3OC)c1)OC(CN)C2 (racemic) [Example 359, (±)-{[7-(2-methoxyphenyl)-5-methoxy-2,3-dihydro-1-benzofuran-2-yl]methyl}amine] | 90% | 8 nM | 10 nM | – | –
13 | CC(C)(C)c1cc(Cl)cc2c1OC(CN)C2 (racemic) [Example 27, (±)-1-(7-tert-butyl-5-chloro-2,3-dihydro-1-benzofuran-2-yl)methanamine] | 80% | 2020 nM | 39 nM | – | –

Further lines, with some results ahead:

Row | Emax (human 5-HT2C receptor; [2]) | EC50 (human 5-HT2C receptor) | Ki [1] | 5-HT2C Function Emax (%) (human 5-HT2C receptor; [3]) | SMILES | Emax (human 5-HT2C receptor; read-out: 5-HT2C Function Emax (%), percentage of the response observed with a maximally effective concentration of 5-HT)
14 | 80% | 394 nM | 13 nM | – | COc1cc2c(c(-c3cc(F)ccc3F)c1)OC(CN)C2 (racemic) [Example 366, (±)-{[7-(2,5-difluorophenyl)-5-methoxy-2,3-dihydro-1-benzofuran-2-yl]methyl}amine] | –
15 | 90% | 21 nM | 4 nM | – | COc1cccc(-c2cc(Cl)cc3c2OC(CN)C3)c1OC (racemic) [Example 249, (±)-{[5-chloro-7-(2,3-dimethoxyphenyl)-2,3-dihydro 1-benzofuran-2-yl]methyl}amine] | –
16 | 90% | 52 nM | 0.74 nM | – | NCC1Cc2cc(Cl)cc(-c3cccc(F)c3F)c2O1 (racemic) [Example 244, (±)-{[5-chloro-7-(2,3-difluorophenyl)-2,3-dihydro-1-benzofuran-2-yl]methyl}amine] | –
17 | 80% | 416 nM | 19 nM | – | NCC1Cc2cc(F)cc(-c3ccc(F)cc3)c2O1 (racemic) [Example 199, (±)-{[5-fluoro-7-(4-fluorophenyl)-2,3-dihydro-1-benzofuran-2-yl]methyl}amine] | –
18 | 85% | 62 nM | 0.9 nM | – | COc1cc2c(c(-c3ccc(F)cc3F)c1)OC(CN)C2 (racemic) [Example 364, (±)-{[7-(2,4-difluorophenyl)-5-methoxy-2,3-dihydro-1-benzofuran-2-yl]methyl}amine] | –
19 | – | 577 nM | 4 nM | 60% | Cc1ccccc1-c1cc(Cl)cc2c1OC(CN)C2 (single isomer, unassigned; (-)) [Example 97, (−)-1-[5-chloro-7-(2-methylphenyl)-2,3-dihydro-1-benzofuran-2-yl]methanamine] | –
20 | 60% | 338 nM | 41 nM | – | CNCC1Cc2cc(OC)cc(-c3cccc(Cl)c3Cl)c2O1 (racemic) [Example 495, (±)-{[7-(2,3-dichlorophenyl)-5-methoxy-2,3-dihydro-1-benzofuran-2-yl]methyl}methylamine] | –
21 | 100% | 63 nM | 0.63 nM | – | COc1cc2c(c(-c3ccccc3F)c1)OC(CN)C2 (racemic) [Example 356, (±)-{[7-(2-fluorophenyl)-5-methoxy-2,3-dihydro-1-benzofuran-2-yl]methyl}amine] | –
22 | – | 21 nM | 2.7 nM | 80% | CNCC1Cc2cc(OC)cc(-c3c(C)cccc3C)c2O1 (single isomer, unassigned; (+)) [Example 561, (+)-{[7-(2,6-dimethylphenyl)-5-methoxy-2,3-dihydro-1-benzofuran-2-yl]methyl}methylamine] | –
23 | 80% | 200 nM | 22 nM | – | CNCC1Cc2cc(OC)cc(-c3ccccc3F)c2O1 (racemic) [Example 491, (±)-{[7-(2-fluorophenyl)-5-methoxy-2,3-dihydro-1-benzofuran-2-yl]methyl}methylamine] | –
24 | 90% | 6 nM | 0.45 nM | – | CNCC1Cc2cc(F)cc(-c3ccccc3Cl)c2O1 (racemic) [Example 439, (±)-{[5-fluoro-7-(2-chlorophenyl)-2,3-dihydro-1-benzofuran-2-yl]methyl}methylamine] | –
25 | – | 6 nM | 0.2 nM | 90% | CNCC1Cc2cc(F)cc(-c3ccccc3C)c2O1 (single isomer, unassigned; (+)) [Example 442, (+)-{[5-fluoro-7-(2-methylphenyl)-2,3-dihydro-1-benzofuran-2-yl]methyl}methylamine] | –
26 | 80% | 3 nM | 0.57 nM | – | CN(C)CC1Cc2cc(F)cc(-c3c(Cl)cccc3Cl)c2O1 (racemic) [Example 237, (±)-{[7-(2,6-dichlorophenyl)-5-fluoro-2,3-dihydro-1-benzofuran-2-yl]methyl}dimethylamine] | –
27 | 90% | 39 nM | 3 nM | – | CNCC1Cc2cc(C)cc(-c3c(C)cccc3C)c2O1 (racemic) [Example 489, (±)-{[7-(2,6-dimethylphenyl)-5-methyl-2,3-dihydro-1-benzofuran-2-yl]methyl}methylamine] | –
28 | – | 1490 nM | 23 nM | – | NCC1Cc2cc(Cl)cc(-c3cccc(F)c3F)c2O1 (single isomer, unassigned) [Example 246, (±)-{[5-chloro-7-(2,3-difluorophenyl)-2,3-dihydro-1-benzofuran-2-yl]methyl}amine] | –
29 | 90% | 7 nM | 0.03 nM | – | CNCC1Cc2cccc(-c3c(Cl)cccc3Cl)c2O1 (single isomer, unassigned; (-)) [Example 434, (−)-{[7-(2,6-dichlorophenyl)-2,3-dihydro-1-benzofuran-2-yl]methyl}methylamine] | –
30 | 90% | 7 nM | 1.3 nM | – | NCC1Cc2cccc(-c3ccc(F)cc3F)c2O1 (single isomer, unassigned; (+)) [Example 147, (+)-1-[7-(2,4-difluorophenyl)-2,3-dihydro-1-benzofuran-2-yl]methanamine] | –
31 | 80% | 153 nM | 24 nM | – | CNCC1Cc2cc(F)cc(-c3cc(C)ccc3C)c2O1 (racemic) [Example 452, (±)-{[7-(2,5-dimethylphenyl)-5-fluoro-2,3-dihydro-1-benzofuran-2-yl]methyl}methylamine] | –
